The values that follow come from paper PMC5860131, “Identification of natural products as novel ligands for the human 5-HT2C receptor” (Biophysics Reports, 2018).

pIC50: −log10 of the molar value.

The target in assay [1] is T1, 5-HT2C receptor (Homo sapiens, UniProt P28335, DEL255-298/G251D/H250E/H252N/INS299[…]/L248D/M247A/M300L/T253W).
T1 construct: the N- and C-terminals were truncated by 39 and 65 residues, respectively; FLAG (N); PreScission protease site + 10× His (C); made in house; host or cells: Spodoptera frugiperda (Sf9), baculovirus
T1 sequence (P28335 with tags, fused parts or gaps with the stated changes limits assumed): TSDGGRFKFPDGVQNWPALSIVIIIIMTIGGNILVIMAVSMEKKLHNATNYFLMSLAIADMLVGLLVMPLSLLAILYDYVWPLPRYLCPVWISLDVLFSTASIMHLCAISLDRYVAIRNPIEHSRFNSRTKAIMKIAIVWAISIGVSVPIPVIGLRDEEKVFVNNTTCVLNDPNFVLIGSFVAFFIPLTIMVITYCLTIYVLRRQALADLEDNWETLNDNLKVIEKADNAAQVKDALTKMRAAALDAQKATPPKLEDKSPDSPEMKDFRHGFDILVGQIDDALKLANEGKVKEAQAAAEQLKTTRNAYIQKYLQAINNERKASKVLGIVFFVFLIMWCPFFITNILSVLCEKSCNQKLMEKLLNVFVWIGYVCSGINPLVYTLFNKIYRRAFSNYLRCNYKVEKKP
It is filed as binding.

The target in assay [2] is T2, 5-HT2B receptor (Homo sapiens, UniProt P41595).
T2 construct: expressed in transfected cells; host or cells: HEK 293T, stably transfected
T2 sequence (P41595 whole entry): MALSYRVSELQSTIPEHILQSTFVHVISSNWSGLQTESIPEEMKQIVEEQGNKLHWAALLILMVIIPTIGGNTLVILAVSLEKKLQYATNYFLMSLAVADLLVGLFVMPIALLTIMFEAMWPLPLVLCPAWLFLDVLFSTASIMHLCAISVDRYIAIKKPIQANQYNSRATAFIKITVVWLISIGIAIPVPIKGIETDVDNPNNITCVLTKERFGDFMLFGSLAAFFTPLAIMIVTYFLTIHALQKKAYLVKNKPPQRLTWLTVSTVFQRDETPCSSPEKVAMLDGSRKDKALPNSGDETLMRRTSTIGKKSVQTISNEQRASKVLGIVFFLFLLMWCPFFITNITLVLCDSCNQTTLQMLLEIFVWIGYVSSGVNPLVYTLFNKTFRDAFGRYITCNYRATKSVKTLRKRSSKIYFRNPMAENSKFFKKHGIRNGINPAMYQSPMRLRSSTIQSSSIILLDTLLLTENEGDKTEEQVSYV
Description: Ca2+ mobilization assay (Fluo-4, FLIPR), HEK 293T cells stably transfected with 5-HT2B. The format is cell-based. An excerpt: The 5-HT2C receptor mainly couples to Gαq proteins. The activated 5-HT2C receptor transmits the signals from the extracellular to the intercellular side using DAG/IP3 (diacyl glycerol/inositol 1,4,5-trisphosphate) as its second massagers (Hannon and Hoyer [2008]). IP3 stimulates the endoplasmic reticulum to release calcium ions into the cytoplasm, which causes the increase of calcium concentration in cytosol. Therefore, calcium mobilization assay is commonly applied to understand how unknown small molecule ligands of 5-HT2C receptor modulate cellular signal transductions. In this case, Fluo-4 Direct dye was used as a fluorescence indicator to detect calcium flux in G protein-coupled receptor expressed cells. The fold of maximum response over average of basal reading is plotted against compound concentration to determine the potency of the compounds (Fig. 3). […]. […] After the dye loaded, cells were placed in a FLIPR^TETRA fluorescence imaging plate reader (Molecular Devices); drug dilutions, prepared at 3× final concentration in FLIPR buffer and aliquotted into 384-well plates, were also added to the FLIPR^TETRA. The fluidics module and plate reader of the FLIPR^TETRA were programmed to read baseline fluorescence for 10 s (1 read/s), then to add 10 μl of drug/well and to read for 6 min (1 read/s). […]

For assay [3], the target named is T3, 5-HT2C receptor (Homo sapiens, UniProt P28335).
T3 construct: expressed in transfected cells; host or cells: HEK 293T, stably transfected
T3 sequence (P28335 33-458): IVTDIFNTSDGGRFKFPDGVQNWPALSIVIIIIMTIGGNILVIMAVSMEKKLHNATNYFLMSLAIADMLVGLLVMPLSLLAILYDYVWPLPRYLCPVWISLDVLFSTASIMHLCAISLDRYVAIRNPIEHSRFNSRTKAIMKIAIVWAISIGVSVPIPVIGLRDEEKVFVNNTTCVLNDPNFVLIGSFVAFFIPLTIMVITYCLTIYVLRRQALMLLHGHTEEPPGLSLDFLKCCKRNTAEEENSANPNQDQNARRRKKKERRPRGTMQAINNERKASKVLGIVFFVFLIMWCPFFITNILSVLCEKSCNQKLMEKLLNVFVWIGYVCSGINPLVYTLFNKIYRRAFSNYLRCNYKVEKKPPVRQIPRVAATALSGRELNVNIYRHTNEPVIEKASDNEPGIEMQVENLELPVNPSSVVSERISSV
Description: Ca2+ mobilization assay (Fluo-4, FLIPR), HEK 293T cells stably transfected with 5-HT2C. It is filed as cell-based. An excerpt:
The 5-HT2C receptor mainly couples to Gαq proteins. The activated 5-HT2C receptor transmits the signals from the extracellular to the intercellular side using DAG/IP3 (diacyl glycerol/inositol 1,4,5-trisphosphate) as its second massagers (Hannon and Hoyer [2008]). IP3 stimulates the endoplasmic reticulum to release calcium ions into the cytoplasm, which causes the increase of calcium concentration in cytosol. Therefore, calcium mobilization assay is commonly applied to understand how unknown small molecule ligands of 5-HT2C receptor modulate cellular signal transductions. In this case, Fluo-4 Direct dye was used as a fluorescence indicator to detect calcium flux in G protein-coupled receptor expressed cells. The fold of maximum response over average of basal reading is plotted against compound concentration to determine the potency of the compounds (Fig. 3). […]. HEK 293T cells stably transfected with 5-HT2A/2B/2C receptor were seeded in 384-well plates at a density of 15,000 cells/well in DMEM containing 1% dialyzed FBS 8 h before the calcium flux assay. After removing medium, cells were then incubated (20 μl/well) for 1 h at 37 °C with Fluo-4 Direct dye (Invitrogen) reconstituted in FLIPR buffer (1× HBSS, 2.5 mmol/L probenecid, and 20 mmol/L HEPES, pH 7.4). After the dye loaded, cells were placed in a FLIPR^TETRA fluorescence imaging plate reader (Molecular Devices); drug dilutions, prepared at 3× final concentration in FLIPR buffer and aliquotted into 384-well plates, were also added to the FLIPR^TETRA. The fluidics module and plate reader of the FLIPR^TETRA were programmed to read baseline fluorescence for 10 s (1 read/s), then to add 10 μl of drug/well and to read for 6 min (1 read/s). Fluorescence in each well was normalized to the average of the first 10 reads (i.e., baseline fluorescence). Then, the maximum-fold increase, which occurred within 60 s after drug addition, over baseline fluorescence elicited by vehicle or drug was determined. […]

Assay [4] concerns the target T4, 5-HT2C receptor G218^5.42S (Homo sapiens, UniProt P28335, DEL255-298/G218S/G251D/H250E/H252N/INS299[…]/L248D/M247A/M300L/T253W).
T4 construct: the N- and C-terminals were truncated by 39 and 65 residues, respectively; PreScission protease site + 10× His (C); made in house
In words: CPM thermal stability assay, 5-HT2C mutant G218S. The format is binding. An excerpt: Based on the binding poses predicted by molecular docking, single-point mutations were designed to test their impact on ligand binding. Mutations of several residues include the highly conserved Asp134^3.32, which is known to cause 5-HT1B or 5-HT2B receptors to abolish the monoamine ligand binding as reported in the literature (Wang et al. [2013]). In this study, residues forming hydrophobic interactions with the substitution groups on the aporphine scaffold of (–)-crebanine (1) were selected for mutation as well and they are Thr139^3.37, Gly218^5.42, Ala222^5.46, and Leu209^ECL2. Effects of those mutations were tested with the CPM assay and the affinity MS assay (Table 2). In the affinity MS experiment, relative ligand-binding capacity (represented by binding %) to different mutants and the wild-type receptor was compared. […]
Purified 5-HT2C receptor protein was thoroughly mixed with CPM fluorescent dyes. […] Fluorescence signals, wavelength 387 nm (excitation) and 463 nm (emission), were monitored (Alexandrov et al. [2008]). […] The thermal denaturation of the samples was evaluated using the scatter plot curve, where the horizontal coordinates represented temperature and the vertical coordinates indicated normalized fluorescence intensity recorded for a particular temperature. […]

T4 sequence (P28335 with tags, fused parts or gaps with the stated changes): as the sequence (P28335 with tags, fused parts or gaps with the stated changes limits assumed) above, with G179S counted along it

For `COc1ccc2c(c1OC)C[C@@H]1c3c(cc4c(c3-2)OCO4)CCN1C` [Compound 1, (–)-crebanine], in assay [1] (CPM assay, comparing to apo-protein), the “thermal shift value (∆Tm)” value was determined as 9.25 °C. Moreover, the “(–)-Crebanine/CPM (Tm)” value in assay [1] (WT receptor, n = 2) was 59.93 °C; in assay [4] (mutant G218^5.42S, n = 2), 53.24 °C. For the same compound, the pIC50 in assay [2] was 5.77; in assay [3], 6.83. Besides, the “Tm value decrease versus wild-type” value in assay [4] (mutation Gly218^5.42Ser) is “over 6.0 °C”.
